The values that follow come from US10166218B2, “3-(1H-indol-2-yl)-1H-pyrazolo[3,4-C]pyridines and therapeutic uses thereof” (Samumed, LLC, priority 2015, dated 2019).

Format in all cases: cell-based
The subject of experiment [1] is SW480 colon cancer cells. The experiment is described as follows: Cell viability assay (CellTiter-Blue) in SW480 colon cancer cells. As to conditions: Homo sapiens, 96 h, four days, CellTiter-Blue. A digest of the protocol:
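SW480 colon cancer cells (~2×10^3/well) exposed to 8-point 1:3 dilutions from 10 μM to 0.0045 μM for four days at 37 °C/5% CO2. Viability read by resazurin (CellTiter-Blue) fluorescence after ~3 h, Ex 560/Em 590 nm. EC50 from non-linear regression; percent inhibition at 10 μM given when EC50 >10 μM.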

For experiment [2], the system named is Wnt activity (Sp5-Luc reporter, TCF/LEF binding sites) in SW480 colon carcinoma cells. The experiment is described as follows: Screening assay for Wnt activity: Sp5-Luc reporter gene assay in stably transduced SW480 cells. As to conditions: Homo sapiens, overnight incubation. A digest of the protocol:
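Wnt-driven firefly luciferase in SW480 colon carcinoma cells reports pathway activity after overnight compound exposure (10 μM top concentration, 3-fold steps). Signal is normalized to DMSO controls.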

The test system of experiment [3] is primary human fibroblasts derived from IPF patients (LL29 cells) treated with TGF-β1; α-smooth muscle actin (αSMA). Put plainly: Inhibition of the fibrotic process: αSMA staining in TGF-β1 treated primary human fibroblasts from IPF patients (LL29 cells). Conditions: Fibroblast, 96 h, TGF-β1 20 ng/mL, 4 days, % cells positive for αSMA. A digest of the protocol:
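LL29 IPF-patient lung fibroblasts in 1% FBS F12 were given compounds (11-point, 10 μM to […], 0.1% DMSO) plus TGF-β1 20 ng/mL for 4 days at 37 °C. αSMA-positive fraction of live (SYTOX-negative) cells was imaged and normalized to TGF-β1/DMSO wells. EC50 by non-linear regression, or % inhibition at 10 μM if >10 μM.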

The subject of experiment [4] is IL-6 (THP-1 cells). Put plainly: Inhibition of IL-6 in LPS-stimulated THP-1 human monocyte cells (HTRF). Conditions: inhibition of IL-6 in LPS-stimulated THP-1 cells, HTRF, 10-point dose-response starting from 10 μM. A digest of the protocol: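 THP-1 cells, serum-reduced (1% FBS) for 24 h, were preincubated with compound (10-point 1:3 series from 10 μM, 0.1% DMSO) for 2 h, then stimulated with 500 ng/mL LPS for 22 h at 37° C. IL-6 was read by HTRF (665/620 nm ratio) and normalized to DMSO. EC50 from four-parameter fit; % inhibition at 10 μM given if EC50 >10 μM.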

Regarding `CCC(=O)Nc1cncc(-c2cc3c(-c4cc5c(-c6cccs6)cccc5[nH]4)n[nH]c3cn2)c1` [Compound 337, N-(5-(3-(4-(Thiophen-2-yl)-1H-indol-2-yl)-1H-pyrazolo[3,4-c]pyridin-5-yl)pyridin-3-yl)propionamide], the EC50 stood at 3420 nM in experiment [1], 911 nM in experiment [2], 387 nM in experiment [3] and 7120 nM in experiment [4].
Taken in the same sequence, the figures for `CN(C)c1cncc(-c2cc3c(-c4cc5c(-c6cccs6)cccc5[nH]4)n[nH]c3cn2)c1` [Compound 343, N,N-Dimethyl-5-(3-(4-(thiophen-2-yl)-1H-indol-2-yl)-1H-pyrazolo[3,4-c]pyridin-5-yl)pyridin-3-amine] were 696 nM, 1130 nM, 134 nM and 7750 nM.
Consider `CCCC(=O)Nc1cncc(-c2cc3c(-c4cc5c(-c6cccs6)cccc5[nH]4)n[nH]c3cn2)c1` [Compound 353, N-(5-(3-(4-(Thiophen-2-yl)-1H-indol-2-yl)-1H-pyrazolo[3,4-c]pyridin-5-yl)pyridin-3-yl)butyramide], for which the EC50 worked out at 4010 nM in experiment [1], 4910 nM in experiment [2], 56 nM in experiment [3] and 1890 nM in experiment [4].
In the same order, the values of `c1ccc(CNCc2cncc(-c3cc4c(-c5cc6c(-c7cccs7)cccc6[nH]5)n[nH]c4cn3)c2)cc1` [Compound 360, N-Benzyl-1-(5-(3-(4-(thiophen-2-yl)-1H-indol-2-yl)-1H-pyrazolo[3,4-c]pyridin-5-yl)pyridin-3-yl)methanamine] are 3470 nM, 1780 nM, 373 nM and 1430 nM.
Regarding `CN(C)CCNc1cc(F)cc(-c2cccc3[nH]c(-c4n[nH]c5cnc(-c6cncc(NC(=O)Cc7ccccc7)c6)cc45)cc23)c1` [Compound 458, N-(5-(3-(4-(3-((2-(Dimethylamino)ethyl)amino)-5-fluorophenyl)-1H-indol-2-yl)-1H-pyrazolo[3,4-c]pyridin-5-yl)pyridin-3-yl)-2-phenylacetamide], the EC50 came to 4550 nM in experiment [1], 3590 nM in experiment [2], 2840 nM in experiment [3] and 3300 nM in experiment [4].
Taken in the same sequence, the figures for `CN(C)CCNc1cc(F)cc(-c2cccc3[nH]c(-c4n[nH]c5cnc(-c6cncc(NC(=O)C7CC7)c6)cc45)cc23)c1` [Compound 468, N-(5-(3-(4-(3-((2-(Dimethylamino)ethyl)amino)-5-fluorophenyl)-1H-indol-2-yl)-1H-pyrazolo[3,4-c]pyridin-5-yl)pyridin-3-yl)cyclopropanecarboxamide] were 1980 nM, 1310 nM, 3510 nM and 866 nM.
Taken in the same sequence, the figures for `CC(C)Nc1cncc(-c2cc3c(-c4cc5c(-c6cc(F)cc(CNS(C)(=O)=O)c6)cccc5[nH]4)n[nH]c3cn2)c1` [Compound 488, N-(3-Fluoro-5-(2-(5-(5-(isopropylamino)pyridin-3-yl)-1H-pyrazolo[3,4-c]pyridin-3-yl)-1H-indol-4-yl)benzyl)methanesulfonamide] were 688 nM, 157 nM, 182 nM and 526 nM.
As for `CS(=O)(=O)NCc1cc(F)cc(-c2cccc3[nH]c(-c4n[nH]c5cnc(-c6cncc(NC(=O)C7CCCCC7)c6)cc45)cc23)c1` [Compound 499, N-(5-(3-(4-(3-Fluoro-5-(methylsulfonamidomethyl)phenyl)-1H-indol-2-yl)-1H-pyrazolo[3,4-c]pyridin-5-yl)pyridin-3-yl)cyclohexanecarboxamide], the EC50 stood at 4540 nM in experiment [1], 1760 nM in experiment [2], 4790 nM in experiment [3] and 1780 nM in experiment [4].
In the case of `CS(=O)(=O)NCc1cc(F)cc(-c2cccc3[nH]c(-c4n[nH]c5cnc(-c6cncc(CNCC7CCCC7)c6)cc45)cc23)c1` [Compound 501, N-(3-(2-(5-(5-(((Cyclopentylmethyl)amino)methyl)pyridin-3-yl)-1H-pyrazolo[3,4-c]pyridin-3-yl)-1H-indol-4-yl)-5-fluorobenzyl)methanesulfonamide], the EC50 was 2250 nM in experiment [1], 1340 nM in experiment [2], 463 nM in experiment [3] and 1030 nM in experiment [4].
Turning to `CS(=O)(=O)NCc1cc(F)cc(-c2cccc3[nH]c(-c4n[nH]c5cnc(-c6cncc(CN7CCC(F)(F)C7)c6)cc45)cc23)c1` [Compound 502, N-(3-(2-(5-(5-((3,3-Difluoropyrrolidin-1-yl)methyl)pyridin-3-yl)-1H-pyrazolo[3,4-c]pyridin-3-yl)-1H-indol-4-yl)-5-fluorobenzyl)methanesulfonamide], the EC50 in experiment [1] is 882 nM; in experiment [2], 253 nM; in experiment [3], 28 nM; in experiment [4], 481 nM.
As to `Fc1cccc(-c2cccc3[nH]c(-c4n[nH]c5cnc(-c6cncc(OCc7ccccc7)c6)cc45)cc23)c1` [Compound 546, 5-(5-(Benzyloxy)pyridin-3-yl)-3-(4-(3-fluorophenyl)-1H-indol-2-yl)-1H-pyrazolo[3,4-c]pyridine], the EC50 turned out to be 365 nM in experiment [1], 421 nM in experiment [2], 234 nM in experiment [3] and 3990 nM in experiment [4].
In the same order, the values of `Cc1ncc(-c2cc3c(-c4cc5ccccc5[nH]4)n[nH]c3cn2)n1C` [Compound 681, 5-(1,2-Dimethyl-1H-imidazol-5-yl)-3-(1H-indol-2-yl)-1H-pyrazolo[3,4-c]pyridine] are 1520 nM, 754 nM, 292 nM and 954 nM.
With `c1cnc2cc(-c3n[nH]c4cnc(-c5cncc(OC6CCCCC6)c5)cc34)[nH]c2c1` [Compound 1025, 5-(5-(Cyclohexyloxy)pyridin-3-yl)-3-(1H-pyrrolo[3,2-b]pyridin-2-yl)-1H-pyrazolo[3,4-c]pyridine], the 50% effective concentration (EC50) in experiment [1] came out at 1430 nM; in experiment [2], 171 nM; in experiment [3], 584 nM; in experiment [4], 353 nM.
